Measurements from US20140171357A1, “VANCOMYCIN DERIVATIVES” (Seachald Pharmaceuticals, Inc., priority 2011, published 2014).
In brackets after ≈: the same amount, converted by molar mass.

Tests used:
[1] = system: vancomycin-susceptible E. faecalis (23); experiment: MIC broth microdilution, vancomycin-susceptible E. faecalis; settings: E. faecalis, vancomycin-susceptible (23)
[2] = system: β-hemolytic streptococci (23); experiment: MIC broth microdilution, β-hemolytic streptococci; settings: for MIC 50% / MIC 90%: β-hemolytic streptococci (23), MHB + lysed horse blood
[3] = system: Staphylococcus aureus (65 strains); experiment: MIC broth microdilution, S. aureus all isolates; settings: S. aureus (65), all resistance subsets
[4] = system: VanA vancomycin-resistant E. faecium (10); experiment: MIC broth microdilution, VanA E. faecium; settings: E. faecium, VanA (10)
[5] = system: methicillin-resistant S. aureus (MRSA, 22); experiment: MIC broth microdilution, MRSA; settings: MRSA (22)
[6] = system: VanB vancomycin-resistant E. faecium (10); experiment: MIC broth microdilution, VanB E. faecium; settings: E. faecium, VanB (10)
[7] = system: S. aureus ATCC 25923; experiment: Neutropenic murine thigh infection model; settings: for AUCc-t (AUC difference between control and treated animals): 24 h time kill
[8] = system: S. pneumoniae (22); experiment: MIC broth microdilution, S. pneumoniae; settings: S. pneumoniae (22); MHB + lysed horse blood
[9] = system: heterogeneous VISA (hVISA, 10); experiment: MIC broth microdilution, hVISA
[10] = system: vancomycin-intermediate S. aureus (VISA, 5); experiment: MIC broth microdilution, VISA
[11] = system: vancomycin-resistant S. aureus (VRSA, 6); experiment: MIC broth microdilution, VRSA
[12] = system: methicillin-susceptible S. aureus (MSSA, 22); experiment: MIC broth microdilution, MSSA; settings: MSSA (22)
[13] = system: Staphylococcus epidermidis (43 strains); experiment: MIC broth microdilution, S. epidermidis; settings: S. epidermidis (43)
[14] = system: VanC enterococci (22); experiment: MIC broth microdilution, vanC-carrying enterococci; settings: VanC enterococci (22)
[15] = system: VanB vancomycin-resistant E. faecalis (12); experiment: MIC broth microdilution, VanB E. faecalis; settings: E. faecalis, VanB (12)
[16] = system: VanA vancomycin-resistant E. faecalis (11); experiment: MIC broth microdilution, VanA E. faecalis; settings: E. faecalis, VanA (11)
[17] = system: vancomycin-susceptible E. faecium (21); experiment: MIC broth microdilution, vancomycin-susceptible E. faecium; settings: E. faecium, vancomycin-susceptible (21)
[18] = 1 mg/kg single intraperitoneal dose
[19] = 4 mg/kg single intraperitoneal dose
[20] = 16 mg/kg single intraperitoneal dose

## CNC(CC(C)C)C(=O)NC1C(=O)NC(CC(N)=O)C(=O)NC2C(=O)NC3C(=O)NC(C(=O)NC(C(=O)NCCOCCOCCN)c4cc(O)cc(O)c4-c4cc3ccc4O)C(O)c3ccc(c(Cl)c3)Oc3cc2cc(c3OC2OC(CO)C(O)C(O)C2OC2CC(C)(NCc3ccc(-c4ccc(Cl)cc4)cc3)C(O)C(C)O2)Oc2ccc(cc2Cl)C1O (centres unmarked) [Compound 9]
[1]
  MIC 50%: 0.12 µg/mL (≈ 0.0674 µM)
  MIC 90%: 0.25 µg/mL (≈ 0.14 µM)
[2]
  MIC 50%: 0.06 µg/mL
  MIC 90%: 0.12 µg/mL
[3]
  MIC 50%: 0.12 µg/mL (≈ 0.0674 µM)
  MIC 90%: 0.5 µg/mL (≈ 0.281 µM)
[4]
  MIC 50%: 1 µg/mL (≈ 0.562 µM)
  MIC 90%: 2 µg/mL (≈ 1.12 µM)
[5]
  MIC 50%: 0.12 µg/mL (≈ 0.0674 µM)
  MIC 90%: 0.12 µg/mL (≈ 0.0674 µM)
[6]
  MIC 50%: 0.06 µg/mL (≈ 0.0337 µM)
  MIC 90%: 0.12 µg/mL (≈ 0.0674 µM)
[7]; [18]
  Max Kill (maximum decrease from initial infection level): 0.98 Log10 CFU/thigh
  AUCc-t (AUC difference between control and treated animals): 7.4 (Log10 CFU/thigh)/hr
[7]; [19]
  Max Kill (maximum decrease from initial infection level): 0.5 Log10 CFU/thigh
  AUCc-t (AUC difference between control and treated animals): 17.2 (Log10 CFU/thigh)/hr
[7]; [20]
  Max Kill (maximum decrease from initial infection level): −0.01 Log10 CFU/thigh
  AUCc-t (AUC difference between control and treated animals): 24.6 (Log10 CFU/thigh)/hr
[8]
  MIC 50%: 0.06 µg/mL
  MIC 90%: 0.06 µg/mL
[9]
  MIC 50%: 0.12 µg/mL (≈ 0.0674 µM)
  MIC 90%: 0.12 µg/mL (≈ 0.0674 µM)
[10]
  MIC 50%: 0.25 µg/mL (≈ 0.14 µM)
[11]
  MIC 50%: 4 µg/mL (≈ 2.25 µM)
[12]
  MIC 50%: 0.12 µg/mL (≈ 0.0674 µM)
  MIC 90%: 0.12 µg/mL (≈ 0.0674 µM)
[13]
  MIC 50%: 0.06 µg/mL (≈ 0.0337 µM)
  MIC 90%: 0.06 µg/mL (≈ 0.0337 µM)
[14]
  MIC 50%: 0.12 µg/mL (≈ 0.0674 µM)
  MIC 90%: 0.5 µg/mL (≈ 0.281 µM)
[15]
  MIC 50%: 0.25 µg/mL (≈ 0.14 µM)
  MIC 90%: 0.25 µg/mL (≈ 0.14 µM)
[16]
  MIC 50%: 4 µg/mL (≈ 2.25 µM)
  MIC 90%: 8 µg/mL (≈ 4.49 µM)
[17]
  MIC 50%: 0.06 µg/mL (≈ 0.0337 µM)
  MIC 90%: 0.12 µg/mL (≈ 0.0674 µM)

## CNC(CC(C)C)C(=O)NC1C(=O)NC(CC(N)=O)C(=O)NC2C(=O)NC3C(=O)NC(C(=O)NC(C(=O)O)c4cc(O)c(CNCCOCCOCC[N+](C)(C)C)c(O)c4-c4cc3ccc4O)C(O)c3ccc(c(Cl)c3)Oc3cc2cc(c3OC2OC(CO)C(O)C(O)C2OC2CC(C)(NCc3ccc(-c4ccc(Cl)cc4)cc3)C(O)C(C)O2)Oc2ccc(cc2Cl)C1O (centres unmarked) [Compound 13]
[1]
  MIC 50%: 0.25 µg/mL
  MIC 90%: 0.25 µg/mL
[2]
  MIC 50%: 0.06 µg/mL
  MIC 90%: 0.06 µg/mL
[3]
  MIC 50%: 0.12 µg/mL
  MIC 90%: 0.5 µg/mL
[4]
  MIC 50%: 2 µg/mL
  MIC 90%: 4 µg/mL
[5]
  MIC 50%: 0.12 µg/mL
  MIC 90%: 0.12 µg/mL
[6]
  MIC 50%: 0.12 µg/mL
  MIC 90%: 0.12 µg/mL
[7]; [18]
  Max Kill (maximum decrease from initial infection level): 0.9 Log10 CFU/thigh
  AUCc-t (AUC difference between control and treated animals): 12.6 (Log10 CFU/thigh)/hr
[7]; [19]
  Max Kill (maximum decrease from initial infection level): 0.28 Log10 CFU/thigh
  AUCc-t (AUC difference between control and treated animals): 20.6 (Log10 CFU/thigh)/hr
[7]; [20]
  Max Kill (maximum decrease from initial infection level): 0.02 Log10 CFU/thigh
  AUCc-t (AUC difference between control and treated animals): 29.5 (Log10 CFU/thigh)/hr
[8]
  MIC 50%: 0.06 µg/mL
  MIC 90%: 0.12 µg/mL
[9]
  MIC 50%: 0.12 µg/mL
  MIC 90%: 0.12 µg/mL
[10]
  MIC 50%: 0.5 µg/mL
[11]
  MIC 50%: 8 µg/mL
[12]
  MIC 50%: 0.12 µg/mL
  MIC 90%: 0.25 µg/mL
[13]
  MIC 50%: 0.12 µg/mL
  MIC 90%: 0.12 µg/mL
[14]
  MIC 50%: 0.25 µg/mL
  MIC 90%: 1 µg/mL
[15]
  MIC 50%: 0.25 µg/mL
  MIC 90%: 0.5 µg/mL
[16]
  MIC 50%: 8 µg/mL
  MIC 90%: 16 µg/mL
[17]
  MIC 50%: 0.12 µg/mL
  MIC 90%: 0.12 µg/mL

## CNC(CC(C)C)C(=O)NC1C(=O)NC(CC(N)=O)C(=O)NC2C(=O)NC3C(=O)NC(C(=O)NC(C(=O)O)c4cc(O)c(CNCCOCCOCCN)c(O)c4-c4cc3ccc4O)C(O)c3ccc(c(Cl)c3)Oc3cc2cc(c3OC2OC(CO)C(O)C(O)C2OC2CC(C)(NCc3ccc(OCc4ccc(Cl)c(Cl)c4)cc3)C(O)C(C)O2)Oc2ccc(cc2Cl)C1O (centres unmarked) [Compound 28]
[1]
  MIC 50%: 0.06 µg/mL (≈ 0.032 µM)
  MIC 90%: 0.12 µg/mL (≈ 0.064 µM)
[2]; β-hemolytic streptococci
  fold more potent than teicoplanin and daptomycin: two- to four
  fold more potent than vancomycin: four- to eight
[2]
  MIC 50%: 0.03 µg/mL
  MIC 90%: 0.06 µg/mL
[3]
  MIC 50%: 0.06 µg/mL (≈ 0.032 µM)
  MIC 90%: 0.12 µg/mL (≈ 0.064 µM)
[4]
  MIC 50%: 0.5 µg/mL (≈ 0.267 µM)
  MIC 90%: 1 µg/mL (≈ 0.533 µM)
[5]
  MIC 50%: 0.06 µg/mL (≈ 0.032 µM)
  MIC 90%: 0.06 µg/mL (≈ 0.032 µM)
[6]
  MIC 50%: 0.03 µg/mL (≈ 0.016 µM)
  MIC 90%: 0.06 µg/mL (≈ 0.032 µM)
[7]; [18]
  Max Kill (maximum decrease from initial infection level): 0.61 Log10 CFU/thigh
  AUCc-t (AUC difference between control and treated animals): 19.1 (Log10 CFU/thigh)/hr
[7]; [19]
  Max Kill (maximum decrease from initial infection level): 0.75 Log10 CFU/thigh
  AUCc-t (AUC difference between control and treated animals): 17.3 (Log10 CFU/thigh)/hr
[7]; [20]
  Max Kill (maximum decrease from initial infection level): −0.02 Log10 CFU/thigh
  AUCc-t (AUC difference between control and treated animals): 38.2 (Log10 CFU/thigh)/hr
[8]
  MIC 50%: 0.03 µg/mL
  MIC 90%: 0.06 µg/mL
[9]
  MIC 50%: 0.06 µg/mL (≈ 0.032 µM)
  MIC 90%: 0.06 µg/mL (≈ 0.032 µM)
[10]
  MIC 50%: 0.12 µg/mL (≈ 0.064 µM)
[11]
  MIC 50%: 2 µg/mL (≈ 1.07 µM)
[12]
  MIC 50%: 0.06 µg/mL (≈ 0.032 µM)
  MIC 90%: 0.06 µg/mL (≈ 0.032 µM)
[13]
  MIC 50%: 0.03 µg/mL (≈ 0.016 µM)
  MIC 90%: 0.03 µg/mL (≈ 0.016 µM)
[14]
  MIC 50%: 0.06 µg/mL (≈ 0.032 µM)
  MIC 90%: 0.25 µg/mL (≈ 0.133 µM)
[15]
  MIC 50%: 0.12 µg/mL (≈ 0.064 µM)
  MIC 90%: 0.12 µg/mL (≈ 0.064 µM)
[16]
  MIC 50%: 2 µg/mL (≈ 1.07 µM)
  MIC 90%: 4 µg/mL (≈ 2.13 µM)
[17]
  MIC 50%: 0.03 µg/mL (≈ 0.016 µM)
  MIC 90%: 0.06 µg/mL (≈ 0.032 µM)
